Test results from patent US20260250325A1, “Antiviral Polypeptide Membrane Fusion Inhibitor, and Preparation Method and Application Thereof” (priority 2025, published 2026).
Where a SMILES comes first, the peptide text is derived from it. The star is where a group is joined. Succinyl(4-O-cholesteryl) = CC(C)CCC[C@@H](C)[C@H]1CC[C@H]2[C@@H]3CC=C4C[C@@H](OC(=O)CCC(=O)*)CC[C@]4(C)[C@H]3CC[C@]12C

System: RSV A2 virus strain
Experiment: Mouse RSV A2 challenge protection, lung viral titer by plaque method
Type: in vivo, BALB/c mice
Conditions: for Mean (PFU/g lung): BALB/c mice, tracheal nebulization 1 mg/kg QD for 5 days, lung collected 2 h after final administration on Day 4; for effect on viral titer in lung tissue (in words): mice, tracheal nebulization once daily for 5 days
Experimental: Female BALB/c mice were from Shanghai Yishang Biotechnology Co., Ltd. HEp- 2 were from the ATCC, with a catalog number CCL-23. The cells were cultured in a DMEM medium solution in which 10% (v/v) fetal bovine serum and 1% penicillin and streptomycin were added. The RSV A2 virus strain was from the ATCC, with a catalog number VR-1540.
Eight-week-old female BALB/c mice were grouped based on body weight (n=6). All animals were intranasally challenged with RSV on Day 0 at a challenge dosage of 1×10^6 pfu (20 μL) per animal. Administration began 1 h after Day 0 challenge; the polypeptide sample, positive control, and solvent control were administered via tracheal nebulization once daily for 5 consecutive days (see Table 3 below for administration dosage and administration frequency). Lung tissue was collected from all animals 2 h after the final administration on Day 4; left lung tissue was rapidly frozen in a virus protection solution with a 10-fold volume and stored below −70° C.; and a viral titer was detected by using a plaque method.
For analysis, the lung RSV A2 virus was determined by performing a tissue homogenate viral load plaque method. In short, on the day prior to sample detection, the HEp-2 cells were inoculated into a 12-well plate (spreading density being 0.3×10^6 cells/mL, with 1000 μL of cell suspension per well) according to a standard HEp-2 cell culture operation procedure. On the day of incubation, the supernatant was taken from the tissue sample that was homogenized using a tissue homogenizer (maintaining a low-temperature environment), and the supernatant was taken after centrifugation. The tissue homogenate sample was diluted with serum-free DMEM, and inoculated into a 12-well plate at a final volume of 400 μL. After 2 h of incubation, the homogenate supernatant was discarded, and 1.5 mL of a covering layer (cell culture medium containing 1% soft agar) was added to each well and cultured in the incubator for approximately 72 h. The covering layer was discarded, the cells were fixed, blocking was performed by using a blocking solution, dyeing was performed with HRP-RSVG, development and air drying were terminated with pure water. Colored spots on the well plate were counted by using a fluorescent (enzyme-linked) immunoassay spot analyzer, and the viral titer was expressed as a plaque-forming unit per gram of tissue (PFU/g). The viral titer was calculated as an arithmetic mean±standard error of all animals in a group.
One hour after RSV A2 challenge in mice, compounds 13, 14, 17, 19, 20, 21, 26, 27, 28, and 40 were administered via tracheal nebulization once daily for 5 consecutive days; and 2 h after the final administration, lung tissue was collected from all groups for viral plaque detection, and results were shown in Table 3.

Compound	Mean (PFU/g lung)	effect on viral titer in lung tissue (in words)
Ac-FDEEISQVNEKINQSLAFIRKSDELLHNVNAGKSTTEAAAKK(Succinyl(4-O-cholesteryl))-NH2 [Compound 26]	5015 PFU/g lung	significantly reduce the viral titer in lung tissue
CC[C@H](C)[C@H](NC(=O)[C@H](CO)NC(=O)[C@H](C)NC(=O)[C@H](CC(=O)O)NC(=O)[C@H](Cc1ccccc1)NC(=O)[C@H](CCC(=O)O)NC(=O)[C@H](CC(=O)O)NC(C)=O)C(=O)N[C@@H](CO)C(=O)N[C@@H](CCC(N)=O)C(=O)N[C@H](C(=O)N[C@@H](CC(N)=O)C(=O)N[C@@H](CCC(=O)O)C(=O)N[C@@H](CCCCN)C(=O)N[C@H](C(=O)N[C@@H](CC(N)=O)C(=O)N[C@@H](CCC(N)=O)C(=O)N[C@@H](CO)C(=O)N[C@@H](CC(C)C)C(=O)N[C@@H](CCC(=O)O)C(=O)N[C@@H](CCC(=O)O)C(=O)N[C@H](C(=O)N[C@@H](CCCNC(=N)N)C(=O)N[C@@H](CCCCN)C(=O)N[C@@H](CO)C(=O)N[C@@H](CC(=O)O)C(=O)N[C@@H](CCC(=O)O)C(=O)N[C@@H](CC(C)C)C(=O)N[C@@H](CC(C)C)C(=O)N[C@@H](Cc1c[nH]cn1)C(=O)N[C@@H](CC(N)=O)C(=O)N[C@@H](CCC(=O)O)C(=O)N[C@@H](C)C(=O)N[C@@H](C)C(=O)N[C@@H](C)C(=O)N[C@@H](CCCCN)C(=O)N[C@@H](CCCCNC(=O)CCC(=O)O[C@H]1CC[C@@]2(C)C(=CC[C@H]3[C@@H]4CC[C@H]([C@H](C)CCCC(C)C)[C@@]4(C)CC[C@@H]32)C1)C(N)=O)[C@@H](C)CC)[C@@H](C)CC)C(C)C [Compound 28] (Ac-DEFDASISQVNEKINQSLEEIRKSDELLHNEAAAKK(Succinyl(4-O-cholesteryl))-NH2)	8425 PFU/g lung	significantly reduce the viral titer in lung tissue
CC[C@H](C)[C@H](NC(=O)[C@H](CCCCN)NC(=O)[C@H](CCCCN)NC(=O)[C@H](CC(C)C)NC(=O)[C@H](CO)NC(=O)[C@H](CCC(=O)O)NC(=O)[C@H](CCC(=O)O)NC(=O)[C@@H](NC(=O)[C@H](CCCCN)NC(=O)[C@H](CCCCN)NC(=O)[C@H](CC(N)=O)NC(=O)[C@@H](NC(=O)[C@H](CCC(=O)O)NC(=O)[C@H](CCC(=O)O)NC(=O)[C@@H](NC(=O)[C@H](CCCCN)NC(=O)[C@H](CCCCN)NC(=O)[C@H](CC(=O)O)NC(=O)[C@H](Cc1ccccc1)NC(=O)[C@H](CCC(=O)O)NC(=O)[C@H](CC(=O)O)NC(=O)[C@H](Cc1c[nH]c2ccccc12)NC(C)=O)[C@@H](C)CC)C(C)C)[C@@H](C)CC)C(=O)N[C@@H](CCC(=O)O)C(=O)N[C@@H](CCC(=O)O)C(=O)N[C@@H](CO)C(=O)N[C@@H](CC(=O)O)C(=O)N[C@@H](CCCCN)C(=O)N[C@@H](CCCCN)C(=O)N[C@@H](CC(C)C)C(=O)N[C@@H](CCC(=O)O)C(=O)N[C@@H](CCC(=O)O)C(=O)N[C@H](C(=O)N[C@@H](CC(N)=O)C(=O)N[C@@H](C)C(=O)N[C@@H](CCC(=O)O)C(=O)N[C@@H](C)C(=O)N[C@@H](C)C(=O)N[C@@H](C)C(=O)N[C@@H](CCCCN)C(=O)N[C@@H](CCCCNC(=O)CCC(=O)O[C@H]1CC[C@@]2(C)C(=CC[C@H]3[C@@H]4CC[C@H]([C@H](C)CCCC(C)C)[C@@]4(C)CC[C@@H]32)C1)C(N)=O)C(C)C [Compound 40] (Ac-WDEFDKKIEEVNKKIEESLKKIEESDKKLEEVNAEAAAKK(Succinyl(4-O-cholesteryl))-NH2)	5678 PFU/g lung	significantly reduce the viral titer in lung tissue
Ac-WDEFDASISQVNEKINQSLEEIRKSDELLHNVNAGLGSGSGK(Succinyl(4-O-cholesteryl))-NH2 [Compound 27]	9458 PFU/g lung	significantly reduce the viral titer in lung tissue
CC[C@H](C)[C@H](NC(=O)[C@H](CCCCN)NC(=O)[C@H](CCCCN)NC(=O)[C@H](CC(C)C)NC(=O)[C@H](CO)NC(=O)[C@H](CCC(=O)O)NC(=O)[C@H](CCC(=O)O)NC(=O)[C@@H](NC(=O)[C@H](CCCCN)NC(=O)[C@H](CCCCN)NC(=O)[C@H](CC(N)=O)NC(=O)[C@@H](NC(=O)[C@H](CCC(=O)O)NC(=O)[C@H](CCC(=O)O)NC(=O)[C@@H](NC(=O)[C@H](CCCCN)NC(=O)[C@H](CCCCN)NC(=O)[C@H](CC(=O)O)NC(=O)[C@H](Cc1ccccc1)NC(=O)[C@H](CCC(=O)O)NC(=O)[C@H](CC(=O)O)NC(=O)[C@H](CO)NC(C)=O)[C@@H](C)CC)C(C)C)[C@@H](C)CC)C(=O)N[C@@H](CCC(=O)O)C(=O)N[C@@H](CCC(=O)O)C(=O)N[C@@H](CO)C(=O)N[C@@H](CC(=O)O)C(=O)N[C@@H](CCCCN)C(=O)N[C@@H](CCCCN)C(=O)N[C@@H](CC(C)C)C(=O)NCC(=O)N[C@@H](CO)C(=O)NCC(=O)N[C@@H](CO)C(=O)NCC(=O)N[C@@H](CCCCNC(=O)CCC(=O)O[C@H]1CC[C@@]2(C)C(=CC[C@H]3[C@@H]4CC[C@H]([C@H](C)CCCC(C)C)[C@@]4(C)CC[C@@H]32)C1)C(N)=O [Compound 20] (Ac-SDEFDKKIEEVNKKIEESLKKIEESDKKLGSGSGK(Succinyl(4-O-cholesteryl))-NH2)	8928 PFU/g lung	significantly reduce the viral titer in lung tissue
CC[C@H](C)[C@H](NC(=O)[C@H](CCCCN)NC(=O)[C@H](CCCCN)NC(=O)[C@H](CC(C)C)NC(=O)[C@H](CO)NC(=O)[C@H](CCC(=O)O)NC(=O)[C@H](CCC(=O)O)NC(=O)[C@@H](NC(=O)[C@H](CCCCN)NC(=O)[C@H](CCCCN)NC(=O)[C@H](CC(N)=O)NC(=O)[C@@H](NC(=O)[C@H](CCC(=O)O)NC(=O)[C@H](CCC(=O)O)NC(=O)[C@@H](NC(=O)[C@H](CCCCN)NC(=O)[C@H](CCCCN)NC(=O)[C@H](CC(=O)O)NC(=O)[C@H](Cc1ccccc1)NC(=O)[C@H](CCC(=O)O)NC(=O)[C@H](CC(=O)O)NC(=O)[C@H](Cc1c[nH]c2ccccc12)NC(C)=O)[C@@H](C)CC)C(C)C)[C@@H](C)CC)C(=O)N[C@@H](CCC(=O)O)C(=O)N[C@@H](CCC(=O)O)C(=O)N[C@@H](CO)C(=O)N[C@@H](CC(=O)O)C(=O)N[C@@H](CCCCN)C(=O)N[C@@H](CCCCN)C(=O)N[C@@H](CC(C)C)C(=O)N[C@@H](CCC(=O)O)C(=O)N[C@@H](C)C(=O)N[C@@H](C)C(=O)N[C@@H](C)C(=O)N[C@@H](CCCCN)C(=O)N[C@@H](CCCCNC(=O)CCC(=O)O[C@H]1CC[C@@]2(C)C(=CC[C@H]3[C@@H]4CC[C@H]([C@H](C)CCCC(C)C)[C@@]4(C)CC[C@@H]32)C1)C(N)=O [Compound 13] (Ac-WDEFDKKIEEVNKKIEESLKKIEESDKKLEAAAKK(Succinyl(4-O-cholesteryl))-NH2)	5380 PFU/g lung	significantly reduce the viral titer in lung tissue
